According to patent publication US11124537B2, “Inhibitors of glucocorticoid receptor” (ORIC Pharmaceuticals, Inc., priority 2015, dated 2021):

Test system: AR
Test: In Vitro AR Agonism Assay
Type: cell-based
Details: LNAR reporter cell line; for Relative Maximum Response to Mifepristone: 10% CSS, 18-24 hrs, ratio of maximum response to that of Mifepristone (set to 1)
Procedure: Example 5: In Vitro AR Agonism Assay
The AR agonism assay was done in the LNAR reporter cell line which has overexpressed AR and 4XARE-Luc genes. This cell line is sensitive to even minor partial AR agonism activity in hormone-deprived media (CSS). The assays were done in RPMI (without phenol red)+10% CSS using 6000 LNAR cells/well in 384-well plates and compounds were incubated with cells in […] incubator for 18-24 hrs. OneGlo reagent (25 uL/well) was added and plates were read with luminometer within 3 minutes.
To gauge the AR partial agonism activity, Mifepristone is included as a standard in the assay. AR agonism assay results are quantified by determining the ratio of the maximum response of individual compounds to the maximum response of Mifepristone (arbitrarily set to 1). Values of Table 4 are reported as Relative Maximum Response to Mifepristone. This general trend of AR agonism was shown for the class of compounds described herein.

SMILES | partial AR agonism (in concentrations as low as 10 nM) | Relative Maximum Response to Mifepristone
CC#C[C@]1(O)CC[C@H]2[C@@H]3CCC4=CC(=O)CCC4=C3[C@@H](c3ccc(N(C)C)cc3)C[C@@]21C [Mifepristone, reference compound] | strong partial AR agonism | 
CN(C)c1ccc([C@H]2C[C@@]3(C)[C@@H](CC[C@@]3(O)C#Cc3ccccc3)[C@@H]3CCC4=CC(=O)CCC4=C32)cc1 [drawing 366] |  | A (A: ≤0.4)
CC(C)(C)C#C[C@]1(O)CC[C@H]2[C@@H]3CCC4=CC(=O)CCC4=C3[C@@H](c3ccc(C(C)(C)C)cc3)C[C@@]21C [drawing 367] |  | A (A: ≤0.4)
CC(C)(C)C#C[C@]1(O)CC[C@H]2[C@@H]3CCC4=CC(=O)CCC4=C3[C@@H](c3ccc(N4CCCC4)cc3)C[C@@]21C [drawing 368] |  | A (A: ≤0.4)
CC(C)(C)C#C[C@]1(O)CC[C@H]2[C@@H]3CCC4=CC(=O)CCC4=C3[C@@H](c3cccc(C4CC4)c3)C[C@@]21C [drawing 369] |  | A (A: ≤0.4)
CN(C)c1ccc([C@H]2C[C@@]3(C)[C@@H](CC[C@@]3(O)C#CC(C)(C)C)[C@@H]3CCC4=CC(=O)CCC4=C32)cc1F [drawing 370] |  | A (A: ≤0.4)
Cc1cc([C@H]2C[C@@]3(C)[C@@H](CC[C@@]3(O)C#CC(C)(C)C)[C@@H]3CCC4=CC(=O)CCC4=C32)ccc1N(C)C [drawing 371] |  | A (A: ≤0.4)
Cc1c(F)cc([C@H]2C[C@@]3(C)[C@@H](CC[C@@]3(O)C#Cc3ccc(S(C)(=O)=O)cc3)[C@@H]3CCC4=CC(=O)CCC4=C32)cc1F [drawing 372] |  | A (A: ≤0.4)
CC(C)C#C[C@]1(O)CC[C@H]2[C@@H]3CCC4=CC(=O)CCC4=C3[C@@H](c3c(F)cc(N4CCOCC4)cc3F)C[C@@]21C [drawing 373] |  | A (A: ≤0.4)
CC(C)C#C[C@]1(O)CC[C@H]2[C@@H]3CCC4=CC(=O)CCC4=C3[C@@H](c3cc(F)c(C(C)C)c(F)c3)C[C@@]21C [drawing 374] |  | A (A: ≤0.4)
CN(C)c1ccc([C@H]2C[C@@]3(C)[C@@H](CC[C@@]3(O)C#CC3CC3)[C@@H]3CCC4=CC(=O)CCC4=C32)c(F)c1F [drawing 375] |  | A (A: ≤0.4)
CN(C)c1cc(F)c([C@H]2C[C@@]3(C)[C@@H](CC[C@@]3(O)C#CC(C)(C)C)[C@@H]3CCC4=CC(=O)CCC4=C32)cc1F [drawing 376] |  | A (A: ≤0.4)
CCC#C[C@]1(O)CC[C@H]2[C@@H]3CCC4=CC(=O)CCC4=C3[C@@H](c3ccc4c(c3)OCCO4)C[C@@]21C [drawing 377] |  | A (A: ≤0.4)
CC(C)(C)C#C[C@]1(O)CC[C@H]2[C@@H]3CCC4=CC(=O)CCC4=C3[C@@H](c3ccc4c(c3)OCO4)C[C@@]21C [drawing 378] |  | A (A: ≤0.4)
C[C@@H]1C[C@H]2[C@@H]3CCC4=CC(=O)CCC4=C3[C@@H](c3ccc(N(C)C)cc3)C[C@]2(C)[C@]1(O)C#CC(C)(C)C [drawing 379] |  | A (A: ≤0.4)
COC(C)(C)C#C[C@]1(O)CC[C@H]2[C@@H]3CCC4=CC(=O)CCC4=C3[C@@H](c3ccc(N4CCCC4)cc3)C[C@@]21C [drawing 380] |  | A (A: ≤0.4)
COC1CN(c2ccc([C@H]3C[C@@]4(C)[C@@H](CC[C@@]4(O)C#CC(C)(C)C)[C@@H]4CCC5=CC(=O)CCC5=C43)cc2)C1 [drawing 381] |  | A (A: ≤0.4)
CC(C)(C)C#C[C@]1(O)CC[C@H]2[C@@H]3CCC4=CC(=O)CCC4=C3[C@@H](c3ccc(N4CCN(S(C)(=O)=O)CC4)cc3)C[C@@]21C [drawing 382] |  | B (B: >0.4)
CN(C)c1ccc([C@H]2C[C@@]3(C)[C@@H](CC[C@@]3(O)C#Cc3ccc(S(C)(=O)=O)cc3)[C@@H]3CCC4=CC(=O)CCC4=C32)cc1 [drawing 383] |  | B (B: >0.4)
CN(C)c1ccc([C@H]2C[C@@]3(C)[C@@H](CC[C@@]3(O)C#CC3(C)COC3)[C@@H]3CCC4=CC(=O)CCC4=C32)cc1 [drawing 384] |  | A (A: ≤0.4)
CC(C)(C)C#C[C@]1(O)CC[C@H]2[C@@H]3CCC4=CC(=O)CCC4=C3[C@@H](c3ccc(N4CCC[C@@H]4CO)cc3)C[C@@]21C [drawing 385] |  | A (A: ≤0.4)
